From patent US6962930B1, “Compounds, compositions and method suitable for amelioration of withdrawal syndromes and withdrawal-induced brain damage” (Lohocla Research Corporation, priority 1997, dated 2005)

How the values were obtained:
RSM (μl) sodium channels = target: T1, RSM (μl) sodium channels (Rattus norvegicus, UniProt P15390); test: Sodium currents, whole cell patch clamp in CHO cells; assay type: cell-based; conditions: held at −100 mV, successive depolarizations
T1 construct: expressed in transfected cells
Protocol: Chinese hamster ovary (CHO) cells stably expressing RSM (μl) sodium channels were studied using the patch clamp whole cell recording technique. CHO cells were grown to confluence in Dulbecco's Modified Eagle's Medium fortified with 15% FBS, 100 U/ml penicillin and 100 μg/ml streptomycin in a humidified incubator at 37° C. and 5% CO2, with medium changed every 2–3 days. Transfections with the plasmid pZemμ1–2 were performed using the calcium phosphate coprecipitation method. After 24 hr of incubation with DNA, standard culturing conditions were resumed. After 3 days, stably transfected cells were selected with 400 μg/ml geneticin. Transfected cells were grown to confluence and then plated on 35 mm culture dishes for 24–96 hr before the experiment.
An 8900 Dagan patch clamp amplifier with a 1 GΩ 8920 Dagan headstage was used in combination with a Nikon Diaphot inverted microscope. Micromanipulators were used to place the electrode onto the cell. Electrodes were pulled to a resistance of […]. […] Peak currents were determined from these traces. DCUKA dissolved in 0.4% DMSO was added directly to the bath following seal formation and the data are expressed as the % of the initial peak current response obtained before drug addition. […]

[1] = target: T2, rabbit cardiac L-type VSCC (Oryctolagus cuniculus, UniProt P15381); test: Currents through VSCCs in oocytes, two electrode voltage clamp; assay type: cell-based; conditions: 50 μM, Li+ currents, holding −80 mV, test −20 mV
T2 construct: expressed in transfected cells; host or cells: Xenopus laevis oocytes, cRNA injection
Protocol: In other studies, Stage V and VI oocytes were prepared from Xenopus laevis and maintained using the procedures described in Example 3. Oocytes were injected with cRNA encoding the rabbit cardiac L-type VSCC αic, together with the ancillary subunits α2/β and β2b in a 1:1:1 molar ratio. Macroscopic currents were recorded 4–6 days following injection using the two electrode voltage clamp technique. During recording, oocytes were maintained at room temperature in a perfusion chamber and perfused (1 ml/min) continuously with a buffer containing (in mM) 100 LiCl, 10 HEPES, 10 HEDTA, 14 TEA-Cl, 0.015 CaCl2, (effective free calcium concentration ˜3 nM), pH 7.4 with TEA-OH. The monovalent ion Li^+was used as the charge carrier rather than Ba^2+in these studies because high concentrations of divalent ions promoted precipitation of DCUKA.
DCUKA was made up as a stock solution in DMSO and used in the studies at a concentration of 50 μM, resulting in a final DMSO percentage of 0.25%. This concentration of DMSO enhanced Li^+currents to a small extent, however, this was controlled for by exchanging between solutions that were identical except for presence/absence of the drug itself. […] Li^+currents were recorded using an OC-725B amplifier (Warner Instruments), filtered at 1 kHz (4-pole Bessel filter, Warner Instruments) and sampled at 2 kHz. Voltage pulses of 250 ms duration were given every 15 sec. […]

[2] = target: α2-noradrenergic receptors; test: [3H]rauwolscine binding, rat cortex crude membranes; conditions: crude P1 membranes
Protocol: Rat cortices were homogenized in 20 volumes of ice-cold HEPES-KOH buffer (20 mM, pH 7.4) and twice centrifuged at 50,000 g for 20 min with an intermediate suspension in fresh buffer. The final pellet was stored at −20° C. in 4 volumes of buffer. The binding of [^3H]rauwolscine was performed in a 0.5 ml volume using 250–300 μg tissue and 1 nM [^3H]rauwolscine in 20 mM HEPES-KOH buffer (pH 7.4 at 23° C.). Non-specific binding was defined by use of 100 μM norepinephrine.

T2 sequence (P15381 whole entry): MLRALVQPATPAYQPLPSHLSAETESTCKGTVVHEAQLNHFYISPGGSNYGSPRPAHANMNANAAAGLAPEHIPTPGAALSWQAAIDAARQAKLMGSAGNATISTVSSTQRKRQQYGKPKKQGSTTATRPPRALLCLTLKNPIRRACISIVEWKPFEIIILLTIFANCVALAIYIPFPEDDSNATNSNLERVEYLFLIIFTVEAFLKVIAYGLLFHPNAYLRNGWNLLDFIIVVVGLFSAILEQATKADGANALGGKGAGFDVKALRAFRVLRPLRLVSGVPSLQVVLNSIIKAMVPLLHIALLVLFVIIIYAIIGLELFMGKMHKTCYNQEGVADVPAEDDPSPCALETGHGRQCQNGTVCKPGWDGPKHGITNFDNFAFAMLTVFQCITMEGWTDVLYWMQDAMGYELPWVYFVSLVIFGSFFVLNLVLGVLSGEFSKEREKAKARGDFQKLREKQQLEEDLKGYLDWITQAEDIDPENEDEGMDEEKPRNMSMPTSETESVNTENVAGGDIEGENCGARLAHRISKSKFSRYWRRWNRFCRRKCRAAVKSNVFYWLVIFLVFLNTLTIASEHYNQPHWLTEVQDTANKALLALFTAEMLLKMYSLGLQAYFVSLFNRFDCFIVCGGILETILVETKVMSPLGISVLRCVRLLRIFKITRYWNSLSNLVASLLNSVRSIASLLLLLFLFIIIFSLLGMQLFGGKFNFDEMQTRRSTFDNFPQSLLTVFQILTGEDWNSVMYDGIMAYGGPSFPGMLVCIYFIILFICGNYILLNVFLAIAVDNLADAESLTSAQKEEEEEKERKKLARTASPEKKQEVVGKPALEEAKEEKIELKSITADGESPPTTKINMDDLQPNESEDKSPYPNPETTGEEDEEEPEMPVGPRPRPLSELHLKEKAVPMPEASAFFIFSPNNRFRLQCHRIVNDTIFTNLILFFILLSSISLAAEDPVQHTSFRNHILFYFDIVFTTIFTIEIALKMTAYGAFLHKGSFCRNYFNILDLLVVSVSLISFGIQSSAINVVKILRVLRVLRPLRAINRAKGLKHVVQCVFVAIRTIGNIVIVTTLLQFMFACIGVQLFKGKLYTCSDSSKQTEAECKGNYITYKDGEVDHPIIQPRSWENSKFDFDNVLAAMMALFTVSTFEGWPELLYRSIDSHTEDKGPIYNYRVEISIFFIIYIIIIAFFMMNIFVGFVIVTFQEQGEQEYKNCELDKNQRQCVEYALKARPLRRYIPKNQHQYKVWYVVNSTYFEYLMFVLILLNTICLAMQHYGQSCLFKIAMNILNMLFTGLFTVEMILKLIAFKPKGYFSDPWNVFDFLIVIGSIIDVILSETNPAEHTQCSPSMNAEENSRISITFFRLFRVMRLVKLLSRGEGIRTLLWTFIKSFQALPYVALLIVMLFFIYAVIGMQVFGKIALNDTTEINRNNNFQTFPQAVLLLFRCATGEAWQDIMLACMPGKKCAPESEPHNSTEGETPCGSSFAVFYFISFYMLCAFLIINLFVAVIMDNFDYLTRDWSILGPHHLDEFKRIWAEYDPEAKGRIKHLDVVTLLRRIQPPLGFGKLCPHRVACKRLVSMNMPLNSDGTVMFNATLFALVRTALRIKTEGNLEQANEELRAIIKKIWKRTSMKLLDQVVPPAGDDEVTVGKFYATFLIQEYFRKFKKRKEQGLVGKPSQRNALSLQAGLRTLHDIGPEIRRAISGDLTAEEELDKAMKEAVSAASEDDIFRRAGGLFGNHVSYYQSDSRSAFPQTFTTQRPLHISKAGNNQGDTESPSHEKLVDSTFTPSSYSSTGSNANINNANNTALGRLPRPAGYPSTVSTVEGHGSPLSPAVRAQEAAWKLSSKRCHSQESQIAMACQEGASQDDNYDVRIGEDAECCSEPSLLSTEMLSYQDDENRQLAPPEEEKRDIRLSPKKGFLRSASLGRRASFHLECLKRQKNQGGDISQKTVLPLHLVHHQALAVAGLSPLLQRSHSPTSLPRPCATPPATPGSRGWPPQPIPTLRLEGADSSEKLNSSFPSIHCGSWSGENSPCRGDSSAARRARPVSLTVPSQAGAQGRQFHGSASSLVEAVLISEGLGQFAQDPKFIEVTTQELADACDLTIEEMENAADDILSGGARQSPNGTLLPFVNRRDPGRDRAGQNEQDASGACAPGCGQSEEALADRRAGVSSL
T1 sequence (P15390 whole entry): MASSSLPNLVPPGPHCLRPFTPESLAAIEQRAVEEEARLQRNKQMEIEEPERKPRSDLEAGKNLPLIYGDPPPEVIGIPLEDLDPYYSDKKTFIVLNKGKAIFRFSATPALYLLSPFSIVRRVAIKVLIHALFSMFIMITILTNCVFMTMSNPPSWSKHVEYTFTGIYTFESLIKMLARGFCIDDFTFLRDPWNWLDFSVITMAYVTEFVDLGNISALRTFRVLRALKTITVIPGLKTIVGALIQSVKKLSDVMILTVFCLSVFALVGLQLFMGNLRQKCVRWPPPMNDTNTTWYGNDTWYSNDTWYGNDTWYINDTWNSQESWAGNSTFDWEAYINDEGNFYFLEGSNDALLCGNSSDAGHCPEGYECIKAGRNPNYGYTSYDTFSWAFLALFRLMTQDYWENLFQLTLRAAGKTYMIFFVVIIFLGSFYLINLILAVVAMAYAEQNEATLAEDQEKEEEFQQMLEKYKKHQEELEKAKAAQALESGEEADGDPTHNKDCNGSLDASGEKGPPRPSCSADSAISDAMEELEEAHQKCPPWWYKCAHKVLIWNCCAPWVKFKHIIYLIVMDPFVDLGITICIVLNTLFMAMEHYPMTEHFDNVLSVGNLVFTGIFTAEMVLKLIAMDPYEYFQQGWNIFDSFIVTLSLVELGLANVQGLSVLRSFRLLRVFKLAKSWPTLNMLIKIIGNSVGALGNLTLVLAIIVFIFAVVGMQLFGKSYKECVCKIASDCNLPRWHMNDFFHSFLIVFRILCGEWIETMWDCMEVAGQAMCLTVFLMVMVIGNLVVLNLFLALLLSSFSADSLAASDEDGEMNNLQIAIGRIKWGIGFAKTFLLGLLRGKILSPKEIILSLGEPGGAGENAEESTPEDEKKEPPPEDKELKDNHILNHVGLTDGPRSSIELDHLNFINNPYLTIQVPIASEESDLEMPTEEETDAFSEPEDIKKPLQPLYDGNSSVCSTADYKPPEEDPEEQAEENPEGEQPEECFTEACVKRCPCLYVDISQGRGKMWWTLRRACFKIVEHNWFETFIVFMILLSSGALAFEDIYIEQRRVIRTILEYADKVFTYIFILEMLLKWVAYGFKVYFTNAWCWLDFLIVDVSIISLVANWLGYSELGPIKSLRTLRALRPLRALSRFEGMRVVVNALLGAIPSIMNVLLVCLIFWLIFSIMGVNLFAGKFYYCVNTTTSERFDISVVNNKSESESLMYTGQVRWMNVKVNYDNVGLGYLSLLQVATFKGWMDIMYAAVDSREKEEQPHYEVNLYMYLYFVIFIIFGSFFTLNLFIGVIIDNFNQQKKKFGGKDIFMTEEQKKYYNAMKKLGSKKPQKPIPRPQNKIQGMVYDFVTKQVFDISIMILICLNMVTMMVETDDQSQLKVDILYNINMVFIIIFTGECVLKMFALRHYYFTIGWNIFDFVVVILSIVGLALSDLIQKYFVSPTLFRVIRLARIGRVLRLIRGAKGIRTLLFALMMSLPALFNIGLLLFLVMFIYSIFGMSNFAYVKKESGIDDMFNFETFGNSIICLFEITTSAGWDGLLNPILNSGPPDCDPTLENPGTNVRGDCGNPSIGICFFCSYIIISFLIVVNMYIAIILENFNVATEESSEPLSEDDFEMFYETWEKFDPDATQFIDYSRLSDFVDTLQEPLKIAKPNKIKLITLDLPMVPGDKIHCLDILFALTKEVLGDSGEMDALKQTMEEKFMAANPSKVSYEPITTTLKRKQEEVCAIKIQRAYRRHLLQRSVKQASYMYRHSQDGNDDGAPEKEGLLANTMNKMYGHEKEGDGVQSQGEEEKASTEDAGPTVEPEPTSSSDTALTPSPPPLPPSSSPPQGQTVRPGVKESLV

O=C(O)c1cc(NC(=O)N(c2ccccc2)c2ccccc2)c2c(Cl)cc(Cl)cc2n1 [DCUKA, (N,N-diphenyl)-4-ureido-5,7-dichloro-2-carboxy-quinoline] was tested, and the “effect on sodium current through VSNaCs” value (RSM (μl) sodium channels) was “use- and voltage-dependent inhibitor of VSNaCs”, the “decrement in the current through VSCCs” value [1] was “less than 20%” and the IC50 [2] was > 200 µM.
